Target: Aminopeptidase N (Sus scrofa) (UniProt P15145)
Test: Inhibition of porcine kidney microsomal LAP using l-leucine-7-amido-4-methylcoumarin as substrate incubated for 60 mins measured every 3 mins by fluorescence assay

Sequence of Aminopeptidase N (Sus scrofa) (P15145 whole entry, looked up): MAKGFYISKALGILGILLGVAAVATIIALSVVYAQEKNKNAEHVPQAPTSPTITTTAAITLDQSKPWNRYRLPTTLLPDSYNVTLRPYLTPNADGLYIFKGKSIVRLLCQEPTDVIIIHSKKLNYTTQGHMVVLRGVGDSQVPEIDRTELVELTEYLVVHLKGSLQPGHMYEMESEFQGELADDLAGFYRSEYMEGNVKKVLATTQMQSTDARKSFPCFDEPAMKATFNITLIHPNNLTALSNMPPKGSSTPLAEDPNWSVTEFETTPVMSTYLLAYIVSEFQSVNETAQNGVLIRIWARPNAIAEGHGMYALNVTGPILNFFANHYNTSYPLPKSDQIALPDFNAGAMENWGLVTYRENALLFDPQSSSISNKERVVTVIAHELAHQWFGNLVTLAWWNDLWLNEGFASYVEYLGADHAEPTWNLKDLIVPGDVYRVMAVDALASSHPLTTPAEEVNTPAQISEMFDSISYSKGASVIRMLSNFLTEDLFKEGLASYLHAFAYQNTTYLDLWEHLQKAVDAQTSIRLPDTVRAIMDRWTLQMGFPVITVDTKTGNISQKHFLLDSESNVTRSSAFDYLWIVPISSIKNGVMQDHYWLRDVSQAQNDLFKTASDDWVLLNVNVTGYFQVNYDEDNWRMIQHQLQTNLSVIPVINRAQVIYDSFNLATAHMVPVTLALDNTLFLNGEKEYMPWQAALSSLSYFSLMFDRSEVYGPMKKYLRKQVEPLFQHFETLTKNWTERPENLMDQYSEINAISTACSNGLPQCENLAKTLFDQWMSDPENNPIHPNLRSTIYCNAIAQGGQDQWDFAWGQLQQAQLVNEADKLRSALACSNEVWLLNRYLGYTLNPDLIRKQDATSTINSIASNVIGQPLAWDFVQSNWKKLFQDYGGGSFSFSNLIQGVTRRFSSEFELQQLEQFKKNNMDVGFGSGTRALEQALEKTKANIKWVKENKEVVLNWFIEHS

| IC50 | Compound |
| --- | --- |
| 76.8 µM | O=C(O)C1Cc2cc(O)c(Br)c(O)c2C=N1 (configuration not stated) |
| 409 µM | O=C(O)C1Cc2c(O)c(O)cc(Br)c2C=N1 (configuration not stated) |
| 63.6 µM | O=C(O)C1Cc2cc(O)c(O)c(I)c2C=N1 (configuration not stated) |
| 1050 µM | COc1cc2c(cc1OC)CCC(C(=O)OCc1ccccc1)(C(=O)OCc1ccccc1)N=C2 |
| 16.5 µM | CCOC(=O)C1(C(=O)OCC)Cc2cc(OCc3ccccc3)cc(OCc3ccccc3)c2C=N1 |
| 379 µM | O=C(O)C1Cc2cc(O)cc(O)c2C=N1 (configuration not stated) |
| 781 µM | O=C(O)C1Cc2cc(O)c(O)c(O)c2C=N1 (configuration not stated) |
| 163 µM | O=C(O)C1CCc2cc(O)c(O)cc2C=N1 (configuration not stated) |
| 111 µM | O=C(O)C1Cc2cc(O)c(O)cc2C=N1 (configuration not stated) |
| 68.3 µM | O=C(O)C1Cc2cc(O)c(O)c(Br)c2C=N1 (configuration not stated) |
| 69.3 µM | O=C(O)C1Cc2cc(O)c(I)cc2C=N1 (configuration not stated) |

Target: Aminopeptidase N (Sus scrofa) (UniProt P15145)
Test: Inhibition of porcine kidney microsomal LAP using l-leucine-7-amido-4-methylcoumarin as substrate incubated for 10 hrs measured every 6 mins by fluorescence assay

| IC50 | Compound |
| --- | --- |
| 33.6 µM | CCOC(=O)C1(C(=O)OCC)Cc2cc(OCc3ccccc3)cc(OCc3ccccc3)c2C=N1 |

Source: BindingDB's records for doi:10.1016/j.bmc.2016.08.054 (National Institute of Public Health-National Institute of …, 2016)
